{
  "source": "the METLIN SMRT retention time set (Domingo-Almenara et al. 2019)",
  "data": [
    {"assay": "gradient 5% acetonitrile 3 min, to 50% in 2 min, to 85% in 15 min, held 3 min, 100 µL/min", "conditions": "column: Zorbax Extend-C18 2.1 x 50 mm; eluents: water / acetonitrile, 0.1% formic acid", "how_it_was_run": "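Each retention time is based on an adduct peak selected computationally and verified by manual inspection. Measurements used HPLC–quadrupole time-of-flight mass spectrometry in positive and negative ionization mode on mixtures of ~100 pure standards. Chromatography ran on a Zorbax Extend-C18 column (2.1 × 50 mm, 1.8 μm) at 100 μL/min with water and acetonitrile, each containing 0.1% formic acid, and dead and dwell volumes of 40 μL and 900 μL.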", "units": {"RP-LC retention time": "s"}, "values": [
      {"smiles": "O=C(NC1CCCCCC1)c1ccc2ccnc(N3CCN(c4ccccc4)CC3)c2c1", "RP-LC retention time": 922},
      {"smiles": "COc1ccc(NC(=O)COc2ccccc2)c2ccccc12", "RP-LC retention time": 893},
      {"smiles": "CCc1cc(=O)n(CC(=O)NCc2ccc(F)cc2)c(N)n1", "RP-LC retention time": 793},
      {"smiles": "Cc1ccc(NC(=O)C2CCCN(S(=O)(=O)c3c[nH]c(C(=O)N4CCCC4)c3)C2)nc1", "note": "(stereo not given)", "RP-LC retention time": 824},
      {"smiles": "c1ccc(-c2nc3nccc(-c4cccc5ccccc45)n3n2)cc1", "RP-LC retention time": 995},
      {"smiles": "Cc1c(C(=O)N2CCN(Cc3nc(C(C)(C)C)cs3)CC2)cccc1[N+](=O)[O-]", "RP-LC retention time": 740},
      {"smiles": "Cc1cc(F)ccc1NC(=O)Cn1c(=O)cc(-c2nc(C(C)C)no2)c2ccccc21", "RP-LC retention time": 996},
      {"smiles": "Cc1ccc(Cl)cc1NC(=O)N1C[C@@H](F)C[C@H]1C(=O)N1CCCCC1", "RP-LC retention time": 746},
      {"smiles": "CCn1cc(-c2nc(C)c(C(=O)NC3CCCCC3)s2)c2cccnc21", "RP-LC retention time": 988},
      {"smiles": "COC(=O)c1c(C)[nH]c(C(=O)N2CCCC(C(=O)NCCCN3CCCCCC3)C2)c1C", "note": "(stereo not given)", "RP-LC retention time": 592},
      {"smiles": "Cc1noc(C)c1S(=O)(=O)N1CC(c2nnc(-c3ccncc3)o2)C2(CCOCC2)C1", "note": "(stereo not given)", "RP-LC retention time": 663},
      {"smiles": "COc1ccc(CNC(=O)c2c(O)c3cccnc3[nH]c2=O)cc1", "RP-LC retention time": 892},
      {"smiles": "CCOC(=O)C(=O)NCC1CN(c2ccccc2)C(=O)O1", "note": "(stereo not given)", "RP-LC retention time": 647},
      {"smiles": "CN(C)S(=O)(=O)c1ccc2c(c1)N(CC(=O)NCc1ccco1)C(=O)C1CCCCN21", "note": "(stereo not given)", "RP-LC retention time": 820},
      {"smiles": "Cc1ccc2[nH]cc(CCNC(=O)CCc3ccccc3)c2c1", "RP-LC retention time": 880},
      {"smiles": "O=c1c2c(CO)c(-c3ccccc3)nn2ccn1Cc1cccc(C(F)(F)F)c1", "RP-LC retention time": 996},
      {"smiles": "CCc1nc(-n2cccc2)sc1C(=O)Nc1ccc(F)c(C)c1", "RP-LC retention time": 1170},
      {"smiles": "COc1ccc(OC)c(NS(=O)(=O)c2cc(-c3nc(C(C)(C)C)cs3)cs2)c1", "RP-LC retention time": 1250},
      {"smiles": "O=C(Nc1ccc(F)cc1Cl)c1cnc(-c2ccc(F)cc2)nc1-c1ccncc1", "RP-LC retention time": 951},
      {"smiles": "COCc1nc2nccc(-c3ccc(OC)cc3)n2n1", "RP-LC retention time": 690},
      {"smiles": "Cc1cccc(N2CCN(c3ccc4cc(S(=O)(=O)N5CCCC5)ccc4n3)CC2C)c1", "note": "(stereo not given)", "RP-LC retention time": 962},
      {"smiles": "Cc1ccc(CNC(=O)c2cn3c(n2)CCCC3)cc1", "RP-LC retention time": 604},
      {"smiles": "Cn1nc(C(=O)NCc2ccc3c(c2)OCO3)c2c1CCN(C(=O)COc1ccc(F)cc1)C2", "RP-LC retention time": 765},
      {"smiles": "Cc1cc(C(=O)Nc2nc(-c3cccc(Cl)c3)c(C)s2)no1", "RP-LC retention time": 1140},
      {"smiles": "COc1cc(OC)cc(C(=O)N2CCN(c3cc(C)n4c(C)nnc4n3)CC2)c1", "RP-LC retention time": 601},
      {"smiles": "COc1ccccc1C(=O)Nc1cccn2nc(C(C)C)nc12", "RP-LC retention time": 1020},
      {"smiles": "CCc1noc(NC(C)=O)c1-c1ccc(OC)c(S(=O)(=O)Nc2cc(C)ccc2OC)c1", "RP-LC retention time": 854},
      {"smiles": "CCOC(=O)c1[nH]c(C)c(C(=O)C(C)N(C(=O)c2cccc(F)c2)C2CC2)c1C", "note": "(stereo not given)", "RP-LC retention time": 988},
      {"smiles": "CC(C)CN1C(=O)CSc2cnn(CC(=O)N3CCN(c4ccccc4)CC3)c(=O)c21", "RP-LC retention time": 823},
      {"smiles": "OC[C@@H]1CN(Cc2ccncc2F)C[C@H]1c1nc(-c2cccnc2)no1", "RP-LC retention time": 560},
      {"smiles": "COc1ccc(NC(=O)Cn2cnc3cc4c(cc32)OCCO4)cc1Cl", "RP-LC retention time": 658},
      {"smiles": "CCCn1c(=O)sc2cc(S(=O)(=O)N3CCC(C(=O)NCc4ccccn4)CC3)ccc21", "RP-LC retention time": 662},
      {"smiles": "O=C(Nc1cc(-c2cccc(Cl)c2)no1)C1CCCN(c2ncnc3c2nc2n3CCCCC2)C1", "note": "(stereo not given)", "RP-LC retention time": 1080},
      {"smiles": "CCOc1ccc(CCNC(=O)Cn2ncc3ccccc32)cc1OCC", "RP-LC retention time": 845},
      {"smiles": "CCc1cccc(NC(=O)c2cn(C)nc2S(=O)(=O)N2CCSCC2)c1", "RP-LC retention time": 1030},
      {"smiles": "O=S(=O)(c1ccc(F)cc1)N1CCC(c2noc(C3CC3)n2)C1", "note": "(stereo not given)", "RP-LC retention time": 885},
      {"smiles": "O=C(NC1CCN(c2cc(-c3ccc(F)cc3)[nH]n2)C1)c1ccccc1F", "note": "(stereo not given)", "RP-LC retention time": 714},
      {"smiles": "CCc1ccc(C(=O)NCCc2nc3cccnc3n2C(C)C)cc1", "RP-LC retention time": 717},
      {"smiles": "COc1ccc(Cn2nc3c(S(=O)(=O)N4CCCCC4)cccn3c2=O)cc1F", "RP-LC retention time": 888},
      {"smiles": "CC(C(=O)N1CCN(c2ccccn2)CC1)n1ccc2cc(S(=O)(=O)N3CCCCCC3)ccc21", "note": "(stereo not given)", "RP-LC retention time": 738},
      {"smiles": "O=C(c1cnccn1)N1CCCn2nc(-c3cccs3)cc2C1", "RP-LC retention time": 689},
      {"smiles": "CC(C)NC(=O)c1ccc(OCC2CCN(C(=O)c3ccc(F)cc3Cl)CC2)cc1", "RP-LC retention time": 888},
      {"smiles": "Cc1nn(CC(=O)NCCCN2CCCC2)c(=O)c2cc(-c3ccccc3)nn12", "RP-LC retention time": 587},
      {"smiles": "CC(C)c1cccc(NC(=O)Cn2c(=O)cc(-c3nc(C4CC4)no3)c3ccccc32)c1", "RP-LC retention time": 1080},
      {"smiles": "CCCn1cc(SCC(N)=O)c2ccccc21", "RP-LC retention time": 730},
      {"smiles": "CCCc1ccc(S(=O)(=O)N2CCC3(CC2)NCCN=C3NCc2cccc(OC)c2)cc1", "RP-LC retention time": 834},
      {"smiles": "O=C(CN1C(=O)CCCc2cc(S(=O)(=O)N3CCCC3)ccc21)Nc1ccc(Cl)cc1", "RP-LC retention time": 892},
      {"smiles": "CCc1cccc(CC)c1NC(=O)N1Cc2[nH]nc(NC(=O)c3ccc(N4CCN(C)CC4)cc3)c2C1", "RP-LC retention time": 664},
      {"smiles": "CCOc1ccccc1CNS(=O)(=O)c1ccc2c(c1)CCCC(=O)N2", "RP-LC retention time": 761},
      {"smiles": "COc1cccc(N2CCN(C(=O)CCc3nnc4c5cc(-c6ccccc6)nn5ccn34)CC2)c1", "RP-LC retention time": 791},
      {"smiles": "CSc1ccc(CNC(=O)CC2c3ncccc3C(=O)N2c2ccccc2)cc1", "note": "(stereo not given)", "RP-LC retention time": 752},
      {"smiles": "CCCn1cnc2cc(-c3noc(COc4cccc(C)c4)n3)ccc21", "RP-LC retention time": 840},
      {"smiles": "O=C(c1cccc(Cl)c1)N1C[C@@H]2C[C@H]1C[C@@H]2NS(=O)(=O)c1cccnc1", "RP-LC retention time": 709},
      {"smiles": "COc1ccc(S(=O)(=O)N2CCC(OCc3noc(C4CCCO4)n3)CC2)cc1", "note": "(stereo not given)", "RP-LC retention time": 863},
      {"smiles": "CCCN1CCN(c2ncc3c(n2)CCN(Cc2ccc(OC(C)C)cc2)C3)CC1", "RP-LC retention time": 581},
      {"smiles": "COc1cc(OC)c(NC(=O)C2CCCN(c3ncnc4c3nc3n4CCCCC3)C2)cc1Cl", "note": "(stereo not given)", "RP-LC retention time": 862},
      {"smiles": "CCOC(=O)CC(=O)Nc1cc2c(cc1N1CCOCC1)n(C)c(=O)n2C", "RP-LC retention time": 660},
      {"smiles": "CC(=O)c1cccc(C(=O)N2CCC3(CC2)NC(=O)N(Cc2ccccc2)C3=O)c1", "RP-LC retention time": 733},
      {"smiles": "CCC(=O)NCc1nc2c(n1CC)CN(S(=O)(=O)c1ccc(F)cc1)CC2", "RP-LC retention time": 575},
      {"smiles": "COc1ccc(-c2csc(NC(=O)CS(=O)(=O)c3ccc(Cl)cc3)n2)cc1", "RP-LC retention time": 1010},
      {"smiles": "CC(=O)N1C[C@@H](C(=O)NCCCc2c(C)noc2C)[C@H](c2nc(C)no2)C1", "RP-LC retention time": 626},
      {"smiles": "Cc1ccccc1CC(=O)NC(CC(C)C)C(=O)Nc1nc2ccccc2[nH]1", "note": "(stereo not given)", "RP-LC retention time": 763},
      {"smiles": "COc1ccc(C(O)CN2CCN(c3ccc(C)cc3)CC2)cc1OC", "note": "(stereo not given)", "RP-LC retention time": 644},
      {"smiles": "O=C(C1CCCO1)N1CCC(CCOc2cccc(F)c2)CC1", "note": "(stereo not given)", "RP-LC retention time": 842},
      {"smiles": "CCCNC(=O)C1CCCN(c2ccc(SCC(=O)NCc3ccc(C(F)(F)F)cc3)nn2)C1", "note": "(stereo not given)", "RP-LC retention time": 700}
    ]}
  ]
}
